Measurements as given in patent US12655116B2, “Substituted isophthalic acid diamides” (Bayer Aktiengesellschaft, priority 2020, dated 2026).

Assays:
MATIN [1] = assay: Pre-emergence herbicidal action against MATIN; assay type: in vivo, Matricaria inodora; conditions: Tripleurospermum inodorum, 504 h; for pest or weed control at 80 g/ha: dosage 80 g/ha; for pest or weed control at 320 g/ha: dosage 320 g/ha
Outline: (§1)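 Greenhouse pots of sandy loam held seeds covered with soil, onto which the compound was applied before emergence. An aqueous suspension or emulsion of WP or EC was used at 600 to 800 l/ha with 0.2% wetting agent. Percent damage was judged visually at 3 weeks.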

SETVI [2] = assay: Pre-emergence herbicidal action against SETVI; assay type: in vivo, Setaria viridis; conditions: Setaria viridis, 504 h; for pest or weed control at 80 g/ha: dosage 80 g/ha; for pest or weed control at 320 g/ha: dosage 320 g/ha
Outline: as §1

SETVI [3] = assay: Post-emergence herbicidal action against SETVI; assay type: in vivo, Setaria viridis; conditions: Setaria viridis, 504 h; for pest or weed control at 20 g/ha: dosage 20 g/ha; for pest or weed control at 80 g/ha: dosage 80 g/ha
Outline: (§2)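 Foliar application at one-leaf stage of formulated test compounds, aqueous spray at 600–800 l/ha with 0.2% wetting agent. Greenhouse, optimal conditions, ~3 weeks; damage scored visually in % relative to untreated plants.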

PHBPU = assay: Post-emergence herbicidal action against PHBPU; assay type: in vivo, Pharbitis purpurea; conditions: Ipomoea purpurea, 504 h; for pest or weed control at 80 g/ha: dosage 80 g/ha
Outline: as §2

ABUTH = assay: Pre-emergence herbicidal action against ABUTH; assay type: in vivo, Abutilon theophrasti; conditions: Abutilon theophrasti, 504 h; for pest or weed control at 80 g/ha: scored visually after 3 weeks vs untreated controls (100% = plants have died, 0% = like control plants); for pest or weed control at 320 g/ha: Dosage: 320 g/ha, scored visually after 3 weeks
Outline: as §1

STEME [4] = assay: Post-emergence herbicidal action against STEME; assay type: in vivo, Stellaria media; conditions: Stellaria media, 504 h
Outline: as §2

LOLRI [5] = assay: Post-emergence herbicidal action against LOLRI; assay type: in vivo, Lolium rigidum; conditions: Lolium rigidum, 504 h; for pest or weed control at 80 g/ha: dosage 80 g/ha
Outline: as §2

HORMU [6] = assay: Post-emergence herbicidal action against HORMU; assay type: in vivo, Hordeum murinum; conditions: Hordeum murinum, 504 h; for pest or weed control at 80 g/ha: dosage 80 g/ha
Outline: as §2

AVEFA [7] = assay: Pre-emergence herbicidal action against AVEFA; assay type: in vivo, Avena fatua; conditions: Avena fatua, 504 h, pre-emergence; for pest or weed control at 320 g/ha: scored visually after 3 weeks, 100% = plants have died, 0% = like control plants
Outline: as §1

AMARE [8] = assay: Post-emergence herbicidal action against AMARE; assay type: in vivo, Amaranthus retroflexus; conditions: Amaranthus retroflexus, 504 h, visual assessment about 3 weeks after treatment, 100% = plants have died, 0% = like control plants
Outline: as §2

ECHCG [9] = assay: Post-emergence herbicidal action against ECHCG; assay type: in vivo, Echinochloa crus-galli; conditions: Echinochloa crus-galli, 504 h; for pest or weed control at 20 g/ha: dosage 20 g/ha; for pest or weed control at 80 g/ha: dosage 80 g/ha
Outline: as §2

ECHCG [10] = assay: Pre-emergence herbicidal action against ECHCG; assay type: in vivo, Echinochloa crus-galli; conditions: Echinochloa crus-galli, 504 h
Outline: as §1

AVEFA [11] = assay: Post-emergence herbicidal action against AVEFA; assay type: in vivo, Avena fatua; conditions: Avena fatua, 504 h, visual assessment about 3 weeks after treatment, 100% = plants have died, 0% = like control plants
Outline: as §2

ALOMY [12] = assay: Pre-emergence herbicidal action against ALOMY; assay type: in vivo, Alopecurus myosuroides; conditions: Alopecurus myosuroides, 504 h, pre-emergence; for pest or weed control at 320 g/ha: scored visually after 3 weeks, 100% = plants have died, 0% = like control plants
Outline: as §1

POLCO = assay: Post-emergence herbicidal action against POLCO; assay type: in vivo, Polygonum convolvulus; conditions: Fallopia convolvulus, 504 h, dosage 80 g/ha
Outline: as §2

ALOMY [13] = assay: Post-emergence herbicidal action against ALOMY; assay type: in vivo, Alopecurus myosuroides; conditions: Alopecurus myosuroides, 504 h, visual assessment about 3 weeks after treatment vs untreated controls; for pest or weed control at 20 g/ha: dosage 20 g/ha; for pest or weed control at 80 g/ha: dosage 80 g/ha
Outline: as §2

STEME [14] = assay: Pre-emergence herbicidal action against STEME; assay type: in vivo, Stellaria media; conditions: Stellaria media, 504 h; for pest or weed control at 80 g/ha: dosage 80 g/ha; for pest or weed control at 320 g/ha: dosage 320 g/ha
Outline: as §1

LOLRI [15] = assay: Pre-emergence herbicidal action against LOLRI; assay type: in vivo, Lolium rigidum; conditions: Lolium rigidum, 504 h, 320 g/ha
Outline: as §1

HORMU [16] = assay: Pre-emergence herbicidal action against HORMU; assay type: in vivo, Hordeum murinum; conditions: Hordeum murinum, 504 h, pre-emergence
Outline: as §1

VERPE = assay: Pre-emergence herbicidal action against VERPE; assay type: in vivo, Veronica persica; conditions: Veronica persica, 504 h; for pest or weed control at 320 g/ha: dosage 320 g/ha
Outline: as §1

MATIN [17] = assay: Post-emergence herbicidal action against MATIN; assay type: in vivo, Matricaria inodora; conditions: Tripleurospermum inodorum, 504 h; for pest or weed control at 20 g/ha: dosage 20 g/ha; for pest or weed control at 80 g/ha: dosage 80 g/ha
Outline: as §2

AMARE [18] = assay: Pre-emergence herbicidal action against AMARE; assay type: in vivo, Amaranthus retroflexus; conditions: Amaranthus retroflexus, 504 h, 100% = plants have died, 0% = like control plants; for pest or weed control at 320 g/ha: scored visually after 3 weeks
Outline: as §1

VIOTR = assay: Post-emergence herbicidal action against VIOTR; assay type: in vivo, Viola tricolor; conditions: Viola tricolor, 504 h
Outline: as §2

[19] = 100% = plants have died, 0% = like control plants
[20] = scored visually after 3 weeks vs untreated controls

Compound: CNC(=O)c1c(C(F)(F)F)ccc(C(=O)Nc2nnc(C)o2)c1Cl [Example 6-116]
- pest or weed control at 20 g/ha (MATIN [1]; dosage 20 g/ha): 90%
- pest or weed control at 80 g/ha (MATIN [1]): 90%
- pest or weed control at 320 g/ha (MATIN [1]): 100%
- pest or weed control at 80 g/ha (SETVI [2]): 100%
- pest or weed control at 320 g/ha (SETVI [2]): 100%
- pest or weed control at 5 g/ha (SETVI [3]; dosage 5 g/ha): 100%
- pest or weed control at 20 g/ha (SETVI [3]): 100%
- pest or weed control at 80 g/ha (SETVI [3]): 100%
- pest or weed control at 5 g/ha (PHBPU; dosage 5 g/ha): 80%
- pest or weed control at 20 g/ha (PHBPU; dosage 20 g/ha): 80%
- pest or weed control at 80 g/ha (PHBPU): 90%
- pest or weed control at 80 g/ha (ABUTH): 100%
- pest or weed control at 320 g/ha (ABUTH; [19]): 100%
- pest or weed control at 20 g/ha (ABUTH; dosage 20 g/ha, scored visually after 3 weeks vs untreated controls, 100% = plants have died, 0% = like control plants, read-out: Pre-emergence action against ABUTH (herbicidal activity in percent)): 100%
- pest or weed control at 20 g/ha (STEME [4]): 100%
- pest or weed control at 80 g/ha (STEME [4]): 100%
- pest or weed control at 5 g/ha (STEME [4]; dosage 5 g/ha): 90%
- pest or weed control at 80 g/ha (LOLRI [5]): 90%
- pest or weed control at 20 g/ha (HORMU [6]; dosage 20 g/ha): 90%
- pest or weed control at 80 g/ha (HORMU [6]): 100%
- pest or weed control at 80 g/ha (AVEFA [7]): 100%
- pest or weed control at 320 g/ha (AVEFA [7]): 100%
- pest or weed control at 20 g/ha (AMARE [8]): 100%
- pest or weed control at 80 g/ha (AMARE [8]): 100%
- pest or weed control at 20 g/ha (ECHCG [9]): 100%
- pest or weed control at 80 g/ha (ECHCG [9]): 100%
- pest or weed control at 80 g/ha (ECHCG [10]): 100%
- pest or weed control at 320 g/ha (ECHCG [10]): 100%
- pest or weed control at 5 g/ha (AVEFA [11]; 5 g/ha): 100%
- pest or weed control at 20 g/ha (AVEFA [11]): 100%
- pest or weed control at 80 g/ha (AVEFA [11]): 100%
- pest or weed control at 80 g/ha (ALOMY [12]; 80 g/ha, scored visually after 3 weeks vs untreated controls (100% = plants have died, 0% = like control plants)): 100%
- pest or weed control at 320 g/ha (ALOMY [12]): 100%
- pest or weed control at 80 g/ha (POLCO): 80%
- pest or weed control at 20 g/ha (ALOMY [13]): 80%
- pest or weed control at 80 g/ha (ALOMY [13]): 100%
- pest or weed control at 20 g/ha (STEME [14]; dosage 20 g/ha): 90%
- pest or weed control at 80 g/ha (STEME [14]): 100%
- pest or weed control at 320 g/ha (STEME [14]): 100%
- pest or weed control at 320 g/ha (LOLRI [15]): 100%
- pest or weed control at 80 g/ha (HORMU [16]): 90%
- pest or weed control at 320 g/ha (HORMU [16]): 100%
- pest or weed control at 320 g/ha (VERPE): 80%
- pest or weed control at 5 g/ha (MATIN [17]; dosage 5 g/ha): 80%
- pest or weed control at 20 g/ha (MATIN [17]): 90%
- pest or weed control at 80 g/ha (MATIN [17]): 100%
- pest or weed control at 20 g/ha (AMARE [18]; 20 g/ha, scored visually after 3 weeks vs untreated controls): 100%
- pest or weed control at 80 g/ha (AMARE [18]; [20]): 100%
- pest or weed control at 320 g/ha (AMARE [18]): 100%
- pest or weed control at 20 g/ha (VIOTR; 20 g/ha): 80%
- pest or weed control at 80 g/ha (VIOTR): 100%

Compound: CCn1nnnc1NC(=O)c1ccc(C(F)(F)F)c(C(=O)NC)c1SC [Example 2-81]
- pest or weed control at 80 g/ha (MATIN [1]): 100%
- pest or weed control at 320 g/ha (MATIN [1]): 100%
- pest or weed control at 80 g/ha (SETVI [2]): 100%
- pest or weed control at 320 g/ha (SETVI [2]): 100%
- pest or weed control at 20 g/ha (SETVI [3]): 90%
- pest or weed control at 80 g/ha (SETVI [3]): 90%
- pest or weed control at 80 g/ha (PHBPU): 90%
- pest or weed control at 80 g/ha (ABUTH): 100%
- pest or weed control at 320 g/ha (ABUTH; [19]): 100%
- pest or weed control at 20 g/ha (STEME [4]): 90%
- pest or weed control at 80 g/ha (STEME [4]): 100%
- pest or weed control at 20 g/ha (LOLRI [5]; dosage 20 g/ha): 80%
- pest or weed control at 80 g/ha (LOLRI [5]): 90%
- pest or weed control at 80 g/ha (HORMU [6]): 80%
- pest or weed control at 80 g/ha (AVEFA [7]): 80%
- pest or weed control at 320 g/ha (AVEFA [7]): 100%
- pest or weed control at 20 g/ha (AMARE [8]): 90%
- pest or weed control at 80 g/ha (AMARE [8]): 90%
- pest or weed control at 20 g/ha (ECHCG [9]): 90%
- pest or weed control at 80 g/ha (ECHCG [9]): 90%
- pest or weed control at 80 g/ha (ECHCG [10]): 100%
- pest or weed control at 320 g/ha (ECHCG [10]): 100%
- pest or weed control at 20 g/ha (AVEFA [11]): 90%
- pest or weed control at 80 g/ha (AVEFA [11]): 100%
- pest or weed control at 320 g/ha (ALOMY [12]): 90%
- pest or weed control at 80 g/ha (POLCO): 80%
- pest or weed control at 20 g/ha (ALOMY [13]): 80%
- pest or weed control at 80 g/ha (ALOMY [13]): 90%
- pest or weed control at 80 g/ha (STEME [14]): 90%
- pest or weed control at 320 g/ha (STEME [14]): 100%
- pest or weed control at 320 g/ha (LOLRI [15]): 90%
- pest or weed control at 80 g/ha (HORMU [16]): 90%
- pest or weed control at 320 g/ha (HORMU [16]): 100%
- pest or weed control at 80 g/ha (VERPE; dosage 80 g/ha): 90%
- pest or weed control at 320 g/ha (VERPE): 90%
- pest or weed control at 20 g/ha (MATIN [17]): 100%
- pest or weed control at 80 g/ha (MATIN [17]): 100%
- pest or weed control at 80 g/ha (AMARE [18]; [20]): 100%
- pest or weed control at 320 g/ha (AMARE [18]): 100%
- pest or weed control at 80 g/ha (VIOTR): 90%
